This passage reports remaining activity results from patent US20240246942A1, “KINASE INHIBITORS FOR THE TREATMENT OF NEURODEGENERATIVE DISEASES” (priority 2020, published 2024).

Read-outs that look alike come from different tables or passages of the source.

Common to all, as to experiment: biochemical
Test [1] deals with T1, panel of 374 wild-type kinases (Homo sapiens, UniProt P27361).
T1 construct: purchased Reaction Biology Corporation
To be noted: read-out: % Enzyme Activity (relative to DMSO controls), ERK1.

For test [2], the target named is T2, panel of 374 wild-type kinases (Homo sapiens, UniProt Q96BR1).
T2 construct: purchased Reaction Biology Corporation
T2 sequence (Q96BR1 1-496): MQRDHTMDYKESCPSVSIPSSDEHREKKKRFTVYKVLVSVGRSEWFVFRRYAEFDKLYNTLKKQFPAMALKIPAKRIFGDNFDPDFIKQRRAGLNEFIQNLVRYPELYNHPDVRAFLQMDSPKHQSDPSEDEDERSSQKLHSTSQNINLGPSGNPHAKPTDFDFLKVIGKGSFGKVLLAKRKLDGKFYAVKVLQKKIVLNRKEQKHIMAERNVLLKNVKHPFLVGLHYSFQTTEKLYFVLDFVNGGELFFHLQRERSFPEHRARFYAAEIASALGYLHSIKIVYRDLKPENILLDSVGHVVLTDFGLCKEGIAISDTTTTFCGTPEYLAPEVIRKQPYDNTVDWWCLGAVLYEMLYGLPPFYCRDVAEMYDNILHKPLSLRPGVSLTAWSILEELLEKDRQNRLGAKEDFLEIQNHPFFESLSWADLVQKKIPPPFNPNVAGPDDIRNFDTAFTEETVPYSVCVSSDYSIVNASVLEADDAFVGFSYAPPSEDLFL
To be noted: read-out: % Enzyme Activity (relative to DMSO controls), kinase SGK3/SGKL.

Test [3] concerns the target T3, panel of 374 wild-type kinases (Homo sapiens, UniProt Q8TD19).
T3 construct: purchased Reaction Biology Corporation
T3 sequence (Q8TD19 1-979): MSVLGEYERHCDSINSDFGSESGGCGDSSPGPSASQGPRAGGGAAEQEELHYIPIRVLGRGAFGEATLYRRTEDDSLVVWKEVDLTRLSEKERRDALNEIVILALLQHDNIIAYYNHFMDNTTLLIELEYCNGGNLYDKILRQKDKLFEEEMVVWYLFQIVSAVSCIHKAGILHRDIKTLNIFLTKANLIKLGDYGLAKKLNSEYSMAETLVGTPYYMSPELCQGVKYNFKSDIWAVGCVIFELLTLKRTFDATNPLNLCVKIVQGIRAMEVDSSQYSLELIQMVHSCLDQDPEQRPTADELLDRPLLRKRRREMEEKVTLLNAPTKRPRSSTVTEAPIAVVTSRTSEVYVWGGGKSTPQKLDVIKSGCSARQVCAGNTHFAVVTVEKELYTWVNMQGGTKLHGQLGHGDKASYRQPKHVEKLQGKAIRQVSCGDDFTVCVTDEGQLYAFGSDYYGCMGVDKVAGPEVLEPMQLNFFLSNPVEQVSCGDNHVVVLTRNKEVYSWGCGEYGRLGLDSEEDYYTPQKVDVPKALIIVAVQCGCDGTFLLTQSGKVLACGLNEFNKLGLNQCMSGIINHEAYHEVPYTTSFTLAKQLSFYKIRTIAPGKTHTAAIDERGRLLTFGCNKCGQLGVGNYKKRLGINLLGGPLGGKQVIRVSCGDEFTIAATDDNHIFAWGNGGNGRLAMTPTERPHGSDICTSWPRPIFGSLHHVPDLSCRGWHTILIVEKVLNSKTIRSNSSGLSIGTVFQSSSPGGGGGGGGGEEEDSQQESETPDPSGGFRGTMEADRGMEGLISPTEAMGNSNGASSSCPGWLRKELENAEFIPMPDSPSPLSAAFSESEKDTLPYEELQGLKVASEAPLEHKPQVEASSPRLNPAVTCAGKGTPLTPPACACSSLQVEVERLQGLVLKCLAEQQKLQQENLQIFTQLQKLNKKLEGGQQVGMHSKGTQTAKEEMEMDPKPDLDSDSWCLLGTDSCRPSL
To be noted: read-out: % Enzyme Activity (relative to DMSO controls), NEK9.

The target in test [4] is T4, panel of 374 wild-type kinases (Homo sapiens, UniProt P57059).
T4 construct: purchased Reaction Biology Corporation
T4 sequence (P57059 whole entry): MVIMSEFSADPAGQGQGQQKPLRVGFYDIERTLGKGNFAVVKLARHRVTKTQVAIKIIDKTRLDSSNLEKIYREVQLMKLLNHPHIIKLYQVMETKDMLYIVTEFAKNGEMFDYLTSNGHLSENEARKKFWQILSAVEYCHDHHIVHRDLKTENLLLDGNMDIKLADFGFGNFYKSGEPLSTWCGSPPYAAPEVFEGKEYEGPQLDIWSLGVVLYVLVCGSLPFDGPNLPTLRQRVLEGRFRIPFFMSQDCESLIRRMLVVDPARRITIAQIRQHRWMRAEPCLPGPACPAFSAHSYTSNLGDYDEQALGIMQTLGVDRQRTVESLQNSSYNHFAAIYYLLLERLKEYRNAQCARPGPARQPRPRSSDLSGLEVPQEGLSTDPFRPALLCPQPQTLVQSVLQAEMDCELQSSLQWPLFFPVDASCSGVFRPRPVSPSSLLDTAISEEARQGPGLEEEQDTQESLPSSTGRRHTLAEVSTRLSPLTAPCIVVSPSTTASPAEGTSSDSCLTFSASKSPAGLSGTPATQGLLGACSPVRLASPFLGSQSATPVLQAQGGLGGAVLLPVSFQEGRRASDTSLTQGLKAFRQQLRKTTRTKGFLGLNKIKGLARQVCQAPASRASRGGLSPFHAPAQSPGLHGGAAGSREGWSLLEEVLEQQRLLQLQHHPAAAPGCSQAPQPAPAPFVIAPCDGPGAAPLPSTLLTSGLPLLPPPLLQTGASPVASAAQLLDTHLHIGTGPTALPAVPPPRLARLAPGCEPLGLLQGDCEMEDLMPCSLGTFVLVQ

Test [5] concerns the target T5, panel of 374 wild-type kinases (Homo sapiens, UniProt P41240).
T5 construct: purchased Reaction Biology Corporation
To be noted: read-out: % Enzyme Activity (relative to DMSO controls), CSK.

In test [6] the target is T6, panel of 374 wild-type kinases (Homo sapiens, UniProt Q13237).
T6 construct: purchased Reaction Biology Corporation
T6 sequence (Q13237 1-762): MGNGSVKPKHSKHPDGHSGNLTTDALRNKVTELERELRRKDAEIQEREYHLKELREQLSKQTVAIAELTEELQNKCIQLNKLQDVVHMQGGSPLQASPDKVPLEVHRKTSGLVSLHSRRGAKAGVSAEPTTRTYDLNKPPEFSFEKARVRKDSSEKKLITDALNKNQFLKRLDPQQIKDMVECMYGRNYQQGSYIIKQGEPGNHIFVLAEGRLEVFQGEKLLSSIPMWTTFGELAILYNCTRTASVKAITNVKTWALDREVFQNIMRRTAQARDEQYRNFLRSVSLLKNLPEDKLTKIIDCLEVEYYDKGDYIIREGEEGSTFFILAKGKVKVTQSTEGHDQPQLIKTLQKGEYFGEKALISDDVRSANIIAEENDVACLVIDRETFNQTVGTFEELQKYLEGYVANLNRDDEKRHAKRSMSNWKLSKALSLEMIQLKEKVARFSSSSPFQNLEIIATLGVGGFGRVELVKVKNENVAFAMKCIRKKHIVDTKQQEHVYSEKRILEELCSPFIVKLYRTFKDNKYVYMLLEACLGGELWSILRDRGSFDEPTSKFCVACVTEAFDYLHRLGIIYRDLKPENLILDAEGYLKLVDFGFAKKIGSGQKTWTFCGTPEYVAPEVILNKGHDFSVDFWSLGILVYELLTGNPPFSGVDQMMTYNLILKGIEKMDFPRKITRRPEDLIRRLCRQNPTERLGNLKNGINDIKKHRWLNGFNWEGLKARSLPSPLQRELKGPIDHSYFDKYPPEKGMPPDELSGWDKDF
To be noted: read-out: % Enzyme Activity (relative to DMSO controls), kinase PKG2/PRKG2.

Test [7] deals with T7, panel of 374 wild-type kinases (Homo sapiens, UniProt P36894).
T7 construct: purchased Reaction Biology Corporation
T7 sequence (P36894 24-532): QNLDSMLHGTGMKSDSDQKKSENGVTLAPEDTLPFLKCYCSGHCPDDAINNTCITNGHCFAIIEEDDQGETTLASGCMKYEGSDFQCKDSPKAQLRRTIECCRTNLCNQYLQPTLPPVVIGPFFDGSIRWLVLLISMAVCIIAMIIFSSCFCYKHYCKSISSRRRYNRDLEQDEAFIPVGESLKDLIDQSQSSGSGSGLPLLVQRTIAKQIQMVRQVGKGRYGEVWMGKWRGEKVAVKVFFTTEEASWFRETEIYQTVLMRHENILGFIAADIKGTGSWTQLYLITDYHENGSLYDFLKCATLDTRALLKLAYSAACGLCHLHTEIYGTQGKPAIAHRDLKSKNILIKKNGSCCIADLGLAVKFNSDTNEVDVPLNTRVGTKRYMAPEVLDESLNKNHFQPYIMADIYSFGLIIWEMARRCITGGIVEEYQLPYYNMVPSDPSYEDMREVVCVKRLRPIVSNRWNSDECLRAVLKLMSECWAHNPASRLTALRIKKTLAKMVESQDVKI
To be noted: read-out: % Enzyme Activity (relative to DMSO controls), ALK3/BMPR1A.

Test [8] deals with T8, panel of 374 wild-type kinases (Homo sapiens, UniProt P15056).
T8 construct: purchased Reaction Biology Corporation
T8 sequence (P15056 whole entry): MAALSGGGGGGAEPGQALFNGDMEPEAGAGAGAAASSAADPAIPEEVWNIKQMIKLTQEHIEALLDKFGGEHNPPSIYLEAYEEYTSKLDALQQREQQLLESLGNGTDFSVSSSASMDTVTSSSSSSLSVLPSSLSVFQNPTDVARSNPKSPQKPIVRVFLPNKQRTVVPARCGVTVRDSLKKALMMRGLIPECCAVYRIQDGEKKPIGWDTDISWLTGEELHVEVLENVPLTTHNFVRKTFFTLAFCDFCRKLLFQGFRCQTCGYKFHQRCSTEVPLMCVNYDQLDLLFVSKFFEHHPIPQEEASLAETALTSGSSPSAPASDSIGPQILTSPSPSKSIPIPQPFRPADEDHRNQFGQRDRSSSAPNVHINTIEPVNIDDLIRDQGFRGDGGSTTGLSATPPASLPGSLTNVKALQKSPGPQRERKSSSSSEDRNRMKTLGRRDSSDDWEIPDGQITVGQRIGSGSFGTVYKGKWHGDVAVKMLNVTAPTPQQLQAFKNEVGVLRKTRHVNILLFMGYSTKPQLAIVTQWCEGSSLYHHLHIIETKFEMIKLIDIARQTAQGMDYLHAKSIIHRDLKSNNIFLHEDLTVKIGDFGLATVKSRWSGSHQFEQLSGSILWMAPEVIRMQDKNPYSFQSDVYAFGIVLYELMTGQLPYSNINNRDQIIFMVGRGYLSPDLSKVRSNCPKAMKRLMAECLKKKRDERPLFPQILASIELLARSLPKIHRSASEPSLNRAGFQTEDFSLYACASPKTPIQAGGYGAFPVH
To be noted: read-out: % Enzyme Activity (relative to DMSO controls), BRAF.

Test [9] concerns the target T9, panel of 374 wild-type kinases (Homo sapiens, UniProt Q9BWU1).
T9 construct: purchased Reaction Biology Corporation
To be noted: read-out: % Enzyme Activity (relative to DMSO controls), CDK19/cyclin C.

T9 sequence (Q9BWU1 whole entry): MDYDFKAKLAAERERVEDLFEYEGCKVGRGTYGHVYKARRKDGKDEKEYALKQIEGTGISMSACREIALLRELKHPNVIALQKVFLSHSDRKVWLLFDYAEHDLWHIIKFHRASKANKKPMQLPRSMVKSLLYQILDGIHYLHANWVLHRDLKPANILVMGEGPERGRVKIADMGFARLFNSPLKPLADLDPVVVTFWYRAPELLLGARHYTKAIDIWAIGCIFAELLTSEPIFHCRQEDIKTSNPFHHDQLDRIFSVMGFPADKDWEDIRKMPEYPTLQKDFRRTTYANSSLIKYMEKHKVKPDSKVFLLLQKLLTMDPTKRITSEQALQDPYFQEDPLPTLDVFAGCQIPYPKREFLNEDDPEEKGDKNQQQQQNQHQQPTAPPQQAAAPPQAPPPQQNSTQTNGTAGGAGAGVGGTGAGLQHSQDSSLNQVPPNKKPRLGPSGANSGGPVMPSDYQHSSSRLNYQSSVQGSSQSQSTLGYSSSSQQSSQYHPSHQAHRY
T5 sequence (P41240 whole entry): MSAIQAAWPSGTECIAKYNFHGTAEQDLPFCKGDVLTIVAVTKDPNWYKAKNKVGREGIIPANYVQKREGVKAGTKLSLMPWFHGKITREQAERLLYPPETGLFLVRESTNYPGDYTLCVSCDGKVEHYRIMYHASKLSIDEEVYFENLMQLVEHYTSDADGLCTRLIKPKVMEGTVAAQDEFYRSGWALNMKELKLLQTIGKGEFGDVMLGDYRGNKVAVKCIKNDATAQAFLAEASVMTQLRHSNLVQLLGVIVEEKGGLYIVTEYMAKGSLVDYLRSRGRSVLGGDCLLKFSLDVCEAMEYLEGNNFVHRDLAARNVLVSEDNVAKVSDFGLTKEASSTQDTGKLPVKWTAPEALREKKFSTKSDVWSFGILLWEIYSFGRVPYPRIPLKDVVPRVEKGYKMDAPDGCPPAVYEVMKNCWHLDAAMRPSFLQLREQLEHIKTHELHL
T1 sequence (P27361 whole entry): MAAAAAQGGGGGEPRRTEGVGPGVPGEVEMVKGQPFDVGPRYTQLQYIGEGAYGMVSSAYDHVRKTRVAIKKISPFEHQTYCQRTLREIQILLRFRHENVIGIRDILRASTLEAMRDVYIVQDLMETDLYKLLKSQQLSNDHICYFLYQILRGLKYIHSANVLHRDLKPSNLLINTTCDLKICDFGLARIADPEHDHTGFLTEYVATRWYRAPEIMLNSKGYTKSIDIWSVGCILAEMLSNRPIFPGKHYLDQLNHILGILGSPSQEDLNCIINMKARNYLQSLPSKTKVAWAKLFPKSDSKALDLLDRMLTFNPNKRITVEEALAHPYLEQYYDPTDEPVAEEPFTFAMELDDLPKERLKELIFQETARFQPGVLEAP

As for `O=C(Nc1cnn(-c2csc(C(=O)NC3COC3)c2)c1)Nc1ccccc1Cl` [Compound 17, 4-(4-(3-(2-chlorophenyl)ureido)-1H-pyrazol-1-yl)-N-(oxetan-3-yl)thiophene-2-carboxamide], the remaining activity at 5 µM turned out to be 92.8% in test [1]; 93.8% in [2]; 104% in [3]; 102% in test [4] (read-out: % Enzyme Activity (relative to DMSO controls), kinase SIK1); 99.2% in test [5]; 101% in test [6]. Besides, the remaining activity at 5 µM is 105% in test [7], 93.3% in test [8] and 105% in [9].
With `O=C(Nc1cnn(-c2csc(C(=O)NC3COC3)c2)c1)Nc1c(F)cccc1Cl` [Compound 25, 4-(4-(3-(2-chloro-6-fluorophenyl)ureido)-1H-pyrazol-1-yl)-N-(oxetan-3-yl)thiophene-2-carboxamide], the remaining activity at 5 µM in [1] is 92.4%; in test [2], 95.3%; in [3], 88.4%; in test [4] (kinase SIK1, read-out: % Enzyme Activity (relative to DMSO controls)) it was 98.3%; in test [5], 97.5%; in test [6], 101%. Moreover, the figures for the remaining activity at 5 µM in [7], in test [8] and in test [9] were 103%, 99.9% and 96.2%, respectively.
As to `Cc1sc(C(=O)NC2COC2)cc1-n1cc(NC(=O)Nc2c(F)cccc2Cl)cn1` [Compound 27, 4-(4-(3-(2-chloro-6-fluorophenyl)ureido)-1H-pyrazol-1-yl)-5-methyl-N-(oxetan-3-yl)thiophene-2-carboxamide], the remaining activity at 10 µM in test [1] (10 uM) was 107%; in test [2] (10 uM), 90.1%; in test [3] (10 uM), 111%; in test [4] (read-out: % Enzyme Activity (relative to DMSO controls), kinase SIK1, 10 uM), 99.8%; in [5] (10 uM), 98%; in test [6] (10 uM) it was 100%. The remaining activity at 10 µM stood at 92.5% in test [7] (10 uM), 105% in test [8] (10 uM) and 98.1% in [9] (10 uM).
